# Legend:
# [1] = In vivo near-infrared imaging of the sentinel lymph node after subcutaneous footpad injection; parameters: species or system BALB/c nude mice; conditions: 0.01% solution, 50 μl s.c. into left forefoot, 30 minutes after injection
# Description: In animal tests, 6-week-old female BALB/c nude mice (SLC Inc., Japan) with no pathogens were used. All the tests were performed under the approval of the Laboratory Animal Center, Chungnam National University.
# For data acquisition and analysis, images (see FIG. 3) were obtained using a home-made NIR optical imaging system (see FIG. 2) manufactured by the present inventors. Herein, the near-infrared optical imaging system comprises a light source consisting of a 500 mW fiber-type laser, an emission filter, a lens system equipped with a microzoom, and a near-infrared detector (NIR CCD detector) (see FIG. 2). In the near infrared imaging system, the intensity of fluorescence appears as a pseudo color, and more red fluorescence indicates stronger intensity.
# Before imaging, mice were anesthetized by intraperitoneally injecting a 2.5% avertin (2,2,2-tribromoethanol-tert-amyl alcohol, Sigma) solution at a dose of 0.01 Ml/g weight. 50 μl of each of an ICG solution (0.01%), ICG/γ-PGA (50 kDa) complex solutions (0.01%, 0.1% and 1%) and ICG/γ-PGA (7000 kDa) complex solutions (0.01%, 0.1% and 1%) was injected into the left forefoot of each nude mouse (footpad, subcutaneous injection), and after 5 min, 20 min and 30 min, the fluorescence of the sentinel lymph node was measured. […]
# [2] = Light stability: near-infrared fluorescence intensity of solutions kept at room temperature for 3 days; type: physicochemical; conditions: 50 μl of solution (0.01% ICG) in tube, after 3 days
# Description: 50 μl of the prepared ICG/γ-PGA complex solution was dispensed into a 1.5 Ml tube, and then the near-infrared fluorescence spectrum thereof was measured using a fluorescence spectrophotometer (FluoroMate FS-2) (see FIG. 1).
compound,measurement,setting,value
"CC1(C)C(/C=C/C=C/C=C/C=C2\N(CCCCS(=O)(=O)O)c3ccc4ccccc4c3C2(C)C)=[N+](CCCCS(=O)(=O)[O-])c2ccc3ccccc3c21 [ICG, Indocyanine green]",intensity of fluorescence emitted from the sentinel lymph node,[1],very weak
same,retention in the sentinel lymph node / migration to other lymph nodes,[1],did not remain in the sentinel lymph node and migrated to other lymph node
same,fluorescence intensity (light stability),[2],rapidly decreased
